# Measurements from PubChem BioAssay AID2060616 (Molecular Pharmacology Branch, DTP, NCI, 2025).
# Tested on: 377384-186-R-J1-PDC complex spheroid viability
# Test: Anticancer human tumor 377384-186-R-J1-PDC patient-derived pancreatic carcinoma cell line growth inhibition [CLK]
# Details: for IC50: curve of first compound; for viability, T/C: stronger effect = lower value
# Method in brief: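 Patient-derived tumor cells grown as complex spheroids with HUVEC endothelial cells and mesenchymal stem cells, treated with drug combinations. Concentrations descend in half-log steps from near clinical Cmax, or from 10 microM if Cmax unknown.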
# [1] = second compound 0.0316 µM, first compound 0.00949 µM
# [2] = second compound 0.0316 µM, first compound 0.03 µM
# [3] = second compound 0.0316 µM, first compound 0.0949 µM
# [4] = second compound 0.0316 µM, first compound 0.3 µM
# [5] = second compound 0.1 µM, first compound 0.00949 µM
# [6] = second compound 0.1 µM, first compound 0.03 µM
# [7] = second compound 0.1 µM, first compound 0.0949 µM
# [8] = second compound 0.1 µM, first compound 0.3 µM
# [9] = second compound 0.316 µM, first compound 0.00949 µM
# [10] = second compound 0.316 µM, first compound 0.03 µM
# [11] = second compound 0.316 µM, first compound 0.0949 µM
# [12] = second compound 0.316 µM, first compound 0.3 µM
# [13] = second compound 1 µM, first compound 0.00949 µM
# [14] = second compound 1 µM, first compound 0.03 µM
# [15] = second compound 1 µM, first compound 0.0949 µM
# [16] = second compound 1 µM, first compound 0.3 µM
# [17] = second compound 3.16 µM, first compound 0.00949 µM
# [18] = second compound 3.16 µM, first compound 0.03 µM
# [19] = second compound 3.16 µM, first compound 0.0949 µM
# [20] = second compound 3.16 µM, first compound 0.3 µM
# [21] = second compound 10 µM, first compound 0.00949 µM
# [22] = second compound 10 µM, first compound 0.03 µM
# [23] = second compound 10 µM, first compound 0.0949 µM
# [24] = second compound 10 µM, first compound 0.3 µM
# [25] = second compound 0.0316 µM, first compound 0.0316 µM
# [26] = second compound 0.0316 µM, first compound 0.1 µM
# [27] = second compound 0.0316 µM, first compound 0.316 µM
# [28] = second compound 0.0316 µM, first compound 1 µM
# [29] = second compound 0.0316 µM, first compound 3.16 µM
# [30] = second compound 0.0316 µM, first compound 10 µM
# [31] = second compound 0.1 µM, first compound 0.0316 µM
# [32] = second compound 0.1 µM, first compound 0.1 µM
# [33] = second compound 0.1 µM, first compound 0.316 µM
# [34] = second compound 0.1 µM, first compound 1 µM
# [35] = second compound 0.1 µM, first compound 3.16 µM
# [36] = second compound 0.1 µM, first compound 10 µM
# [37] = second compound 0.316 µM, first compound 0.0316 µM
# [38] = second compound 0.316 µM, first compound 0.1 µM
# [39] = second compound 0.316 µM, first compound 0.316 µM
# [40] = second compound 0.316 µM, first compound 1 µM
# [41] = second compound 0.316 µM, first compound 3.16 µM
# [42] = second compound 0.316 µM, first compound 10 µM
# [43] = second compound 1 µM, first compound 0.0316 µM
# [44] = second compound 1 µM, first compound 0.1 µM
# [45] = second compound 1 µM, first compound 0.316 µM
# [46] = second compound 1 µM, first compound 1 µM
# [47] = second compound 1 µM, first compound 3.16 µM
# [48] = second compound 1 µM, first compound 10 µM
# [49] = second compound 3.16 µM, first compound 0.0316 µM
# [50] = second compound 3.16 µM, first compound 0.1 µM
# [51] = second compound 3.16 µM, first compound 0.316 µM
# [52] = second compound 3.16 µM, first compound 1 µM
# [53] = second compound 3.16 µM, first compound 3.16 µM
# [54] = second compound 3.16 µM, first compound 10 µM
# [55] = second compound 10 µM, first compound 0.0316 µM
# [56] = second compound 10 µM, first compound 0.1 µM
# [57] = second compound 10 µM, first compound 0.316 µM
# [58] = second compound 10 µM, first compound 1 µM
# [59] = second compound 10 µM, first compound 3.16 µM
# [60] = second compound 10 µM, first compound 10 µM
# 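Further: spheroids exposed to agents for 7 days before reading.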
# 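Wherever viability, T/C is given: luminescence signal used as a stand-in for viable cells.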
smiles,measurement,setting,value
CC(C)CC(NC(=O)C(Cc1ccccc1)NC(=O)c1cnccn1)B(O)O (stereo not drawn) + CN1CCN(c2cc(C(=O)Nc3cc4cc(-c5cnn(C)c5)ccc4cn3)ccn2)CC1,IC50,second compound 0.0316 µM,1.66 nM
same,IC50,second compound 0.1 µM,1.65 nM
same,IC50,second compound 0.316 µM,< 0.949 nM
same,IC50,second compound 1 µM,< 0.949 nM
same,IC50,second compound 3.16 µM,< 0.949 nM
same,IC50,second compound 10 µM,< 0.949 nM
same,"viability, T/C","second compound 0.0316 µM, first compound 0.000949 µM",95.5%
same,"viability, T/C","second compound 0.0316 µM, first compound 0.003 µM",2.33%
same,"viability, T/C",[1],0.36%
same,"viability, T/C",[2],0.23%
same,"viability, T/C",[3],0.25%
same,"viability, T/C",[4],0.18%
same,"viability, T/C","second compound 0.1 µM, first compound 0.000949 µM",94.8%
same,"viability, T/C","second compound 0.1 µM, first compound 0.003 µM",1.28%
same,"viability, T/C",[5],0.36%
same,"viability, T/C",[6],0.22%
same,"viability, T/C",[7],0.23%
same,"viability, T/C",[8],0.22%
same,"viability, T/C","second compound 0.316 µM, first compound 0.000949 µM",22.2%
same,"viability, T/C","second compound 0.316 µM, first compound 0.003 µM",1.48%
same,"viability, T/C",[9],0.19%
same,"viability, T/C",[10],0.21%
same,"viability, T/C",[11],0.28%
same,"viability, T/C",[12],2.08%
same,"viability, T/C","second compound 1 µM, first compound 0.000949 µM",0.64%
same,"viability, T/C","second compound 1 µM, first compound 0.003 µM",0.47%
same,"viability, T/C",[13],0.35%
same,"viability, T/C",[14],0.22%
same,"viability, T/C",[15],0.4%
same,"viability, T/C",[16],0.32%
same,"viability, T/C","second compound 3.16 µM, first compound 0.000949 µM",1.01%
same,"viability, T/C","second compound 3.16 µM, first compound 0.003 µM",1.51%
same,"viability, T/C",[17],0.92%
same,"viability, T/C",[18],0.56%
same,"viability, T/C",[19],0.48%
same,"viability, T/C",[20],1.78%
same,"viability, T/C","second compound 10 µM, first compound 0.000949 µM",0.25%
same,"viability, T/C","second compound 10 µM, first compound 0.003 µM",0.32%
same,"viability, T/C",[21],0.24%
same,"viability, T/C",[22],0.24%
same,"viability, T/C",[23],0.43%
same,"viability, T/C",[24],1.64%
CC1(C)CCC(CN2CCN(c3ccc(C(=O)NS(=O)(=O)c4ccc(NCC5CCOCC5)c([N+](=O)[O-])c4)c(Oc4cnc5[nH]ccc5c4)c3)CC2)=C(c2ccc(Cl)cc2)C1 + CN1CCN(c2cc(C(=O)Nc3cc4cc(-c5cnn(C)c5)ccc4cn3)ccn2)CC1,IC50,second compound 0.0316 µM,5530 nM
same,IC50,second compound 0.1 µM,5250 nM
same,IC50,second compound 0.316 µM,< 31.6 nM
same,IC50,second compound 1 µM,< 31.6 nM
same,IC50,second compound 3.16 µM,< 31.6 nM
same,IC50,second compound 10 µM,< 31.6 nM
same,"viability, T/C",[25],96%
same,"viability, T/C",[26],97.6%
same,"viability, T/C",[27],102%
same,"viability, T/C",[28],115%
same,"viability, T/C",[29],89.7%
same,"viability, T/C",[30],8.02%
same,"viability, T/C",[31],95.7%
same,"viability, T/C",[32],101%
same,"viability, T/C",[33],89.8%
same,"viability, T/C",[34],92.7%
same,"viability, T/C",[35],83.8%
same,"viability, T/C",[36],7.17%
same,"viability, T/C",[37],24.6%
same,"viability, T/C",[38],27.9%
same,"viability, T/C",[39],27.9%
same,"viability, T/C",[40],21.6%
same,"viability, T/C",[41],20.4%
same,"viability, T/C",[42],3.98%
same,"viability, T/C",[43],1.15%
same,"viability, T/C",[44],1.09%
same,"viability, T/C",[45],1.14%
same,"viability, T/C",[46],1.04%
same,"viability, T/C",[47],1.22%
same,"viability, T/C",[48],1.79%
same,"viability, T/C",[49],0.38%
same,"viability, T/C",[50],0.8%
same,"viability, T/C",[51],0.43%
same,"viability, T/C",[52],0.54%
same,"viability, T/C",[53],1.02%
same,"viability, T/C",[54],1.42%
same,"viability, T/C",[55],0.41%
same,"viability, T/C",[56],0.46%
same,"viability, T/C",[57],0.55%
same,"viability, T/C",[58],0.59%
same,"viability, T/C",[59],0.61%
same,"viability, T/C",[60],0.95%
CC1COCCN1c1cc(C2(S(C)(=N)=O)CC2)nc(-c2ccnc3[nH]ccc23)n1 (stereo not drawn) + CN1CCN(c2cc(C(=O)Nc3cc4cc(-c5cnn(C)c5)ccc4cn3)ccn2)CC1,IC50,second compound 0.0316 µM,2160 nM
same,IC50,second compound 0.1 µM,1840 nM
same,IC50,second compound 0.316 µM,< 31.6 nM
same,IC50,second compound 1 µM,< 31.6 nM
same,IC50,second compound 3.16 µM,< 31.6 nM
same,IC50,second compound 10 µM,< 31.6 nM
same,"viability, T/C",[25],97.6%
same,"viability, T/C",[26],102%
same,"viability, T/C",[27],97.8%
same,"viability, T/C",[28],77.3%
same,"viability, T/C",[29],36.7%
same,"viability, T/C",[30],19.1%
same,"viability, T/C",[31],110%
same,"viability, T/C",[32],108%
same,"viability, T/C",[33],95.5%
same,"viability, T/C",[34],69.1%
same,"viability, T/C",[35],33.1%
same,"viability, T/C",[36],17.2%
same,"viability, T/C",[37],27%
same,"viability, T/C",[38],32%
same,"viability, T/C",[39],24.1%
same,"viability, T/C",[40],24.8%
same,"viability, T/C",[41],14.1%
same,"viability, T/C",[42],9.42%
same,"viability, T/C",[43],1.04%
same,"viability, T/C",[44],1.24%
same,"viability, T/C",[45],1.39%
same,"viability, T/C",[46],1.11%
same,"viability, T/C",[47],0.85%
same,"viability, T/C",[48],0.48%
same,"viability, T/C",[49],0.45%
same,"viability, T/C",[50],0.34%
same,"viability, T/C",[51],0.48%
same,"viability, T/C",[52],0.44%
same,"viability, T/C",[53],0.69%
same,"viability, T/C",[54],0.65%
same,"viability, T/C",[55],0.51%
same,"viability, T/C",[56],0.45%
same,"viability, T/C",[57],1.23%
same,"viability, T/C",[58],0.54%
same,"viability, T/C",[59],1.37%
same,"viability, T/C",[60],0.58%
NC(=O)C(=Cn1cnc(-c2cc(C(F)(F)F)cc(C(F)(F)F)c2)n1)c1cncnc1 + CN1CCN(c2cc(C(=O)Nc3cc4cc(-c5cnn(C)c5)ccc4cn3)ccn2)CC1,IC50,second compound 0.0316 µM,99.6 nM
same,IC50,second compound 0.1 µM,50.5 nM
same,IC50,second compound 0.316 µM,< 9.49 nM
same,IC50,second compound 1 µM,< 9.49 nM
same,IC50,second compound 3.16 µM,< 9.49 nM
same,IC50,second compound 10 µM,< 9.49 nM
same,"viability, T/C",[1],81.1%
same,"viability, T/C",[2],76%
same,"viability, T/C",[3],50.1%
same,"viability, T/C",[4],21.7%
same,"viability, T/C","second compound 0.0316 µM, first compound 0.949 µM",5.88%
same,"viability, T/C","second compound 0.0316 µM, first compound 3 µM",2%
same,"viability, T/C",[5],87.6%
same,"viability, T/C",[6],63.4%
same,"viability, T/C",[7],33.6%
same,"viability, T/C",[8],14.3%
same,"viability, T/C","second compound 0.1 µM, first compound 0.949 µM",3.11%
same,"viability, T/C","second compound 0.1 µM, first compound 3 µM",1.52%
same,"viability, T/C",[9],21.2%
same,"viability, T/C",[10],15%
same,"viability, T/C",[11],8.59%
same,"viability, T/C",[12],1.27%
same,"viability, T/C","second compound 0.316 µM, first compound 0.949 µM",1.18%
same,"viability, T/C","second compound 0.316 µM, first compound 3 µM",2%
same,"viability, T/C",[13],0.39%
same,"viability, T/C",[14],0.58%
same,"viability, T/C",[15],1.29%
same,"viability, T/C",[16],1.21%
same,"viability, T/C","second compound 1 µM, first compound 0.949 µM",2.26%
same,"viability, T/C","second compound 1 µM, first compound 3 µM",2.39%
same,"viability, T/C",[17],0.7%
same,"viability, T/C",[18],1.97%
same,"viability, T/C",[19],1.72%
same,"viability, T/C",[20],1.71%
same,"viability, T/C","second compound 3.16 µM, first compound 0.949 µM",1.82%
same,"viability, T/C","second compound 3.16 µM, first compound 3 µM",2.81%
same,"viability, T/C",[21],0.61%
same,"viability, T/C",[22],0.97%
same,"viability, T/C",[23],1.5%
same,"viability, T/C",[24],0.79%
same,"viability, T/C","second compound 10 µM, first compound 0.949 µM",0.88%
same,"viability, T/C","second compound 10 µM, first compound 3 µM",0.91%
